Reference: PubChem BioAssay (NCI)
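96-well plates; 48 h exposure; 5 concentrations. Endpoints by linear interpolation between flanking doses. Not reached: highest tested concentration assigned. Abbreviation: GI50, concentration required for 50% inhibition of growth. TGI: total growth inhibition.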

How the values were obtained:
Experiment in all cases: growth of human tumour cells (NCI), 48 h
[1] = tested on: 786-0 renal
[2] = tested on: A498 renal
[3] = tested on: A549 NSCLC
[4] = tested on: ACHN renal
[5] = tested on: BT-549 breast
[6] = tested on: CAKI-1 renal
[7] = tested on: CCRF-CEM leukemia
[8] = tested on: DU-145 prostate
[9] = tested on: EKVX NSCLC
[10] = tested on: HCT-116 colon
[11] = tested on: HCT-15 colon
[12] = tested on: HL-60(TB) leukemia
[13] = tested on: HOP-62 NSCLC
[14] = tested on: HOP-92 NSCLC
[15] = tested on: HS 578T breast
[16] = tested on: HT29 colon
[17] = tested on: IGROV1 ovarian
[18] = tested on: K-562 leukemia
[19] = tested on: KM12 colon
[20] = tested on: LOX IMVI melanoma
[21] = tested on: M14 melanoma
[22] = tested on: MALME-3M melanoma
[23] = tested on: MCF7 breast
[24] = tested on: MDA-MB-231 breast
[25] = tested on: MDA-MB-435
[26] = tested on: MOLT-4 leukemia
[27] = tested on: NCI-H226 lung
[28] = tested on: NCI-H23 lung
[29] = tested on: NCI-H460 lung
[30] = tested on: NCI-H522 lung
[31] = tested on: NCI/ADR-RES ovarian
[32] = tested on: OVCAR-3 ovarian
[33] = tested on: OVCAR-5 ovarian
[34] = tested on: OVCAR-8 ovarian
[35] = tested on: PC-3 prostate
[36] = tested on: RPMI-8226 leukemia
[37] = tested on: RXF 393 renal
[38] = tested on: SF-268 CNS
[39] = tested on: SF-295 CNS
[40] = tested on: SF-539 CNS
[41] = tested on: SK-MEL-2 melanoma
[42] = tested on: SK-MEL-28 melanoma
[43] = tested on: SK-MEL-5 melanoma
[44] = tested on: SK-OV-3 ovarian
[45] = tested on: SN12C renal
[46] = tested on: SNB-19 CNS
[47] = tested on: SNB-75 CNS
[48] = tested on: SR leukemia
[49] = tested on: SW-620 colon
[50] = tested on: T-47D breast
[51] = tested on: TK-10 renal
[52] = tested on: U251 CNS
[53] = tested on: UACC-257 melanoma
[54] = tested on: UACC-62 melanoma
[55] = tested on: COLO 205 colon
[56] = tested on: HCC-2998 colon
[57] = tested on: MDA-N
[58] = tested on: UO-31 renal

## C=C1CCC2C3(C)COC(c4cccc(Cl)c4)OC3CCC2(C)C1/C=C/C1=CCOC1=O (stereo unspecified)
[1]
  GI50: > 100 µM
  TGI: > 100 µM
[2]
  GI50: 2.54 µM
  TGI: > 100 µM
[3]
  GI50: 3.31 µM
  TGI: > 100 µM
[4]
  GI50: > 100 µM
  TGI: > 100 µM
[5]
  GI50: 6.21 µM
  TGI: > 100 µM
[6]
  GI50: 7.78 µM
  TGI: > 100 µM
[7]
  GI50: 7.51 µM
  TGI: > 100 µM
[8]
  GI50: > 100 µM
  TGI: > 100 µM
[9]
  GI50: 2.55 µM
  TGI: > 100 µM
[10]
  GI50: 3.08 µM
  TGI: > 100 µM
[11]
  GI50: 6.75 µM
  TGI: > 100 µM
[12]
  GI50: 8.27 µM
  TGI: > 100 µM
[13]
  GI50: > 100 µM
  TGI: > 100 µM
[14]
  GI50: > 100 µM
  TGI: > 100 µM
[15]
  GI50: 7.42 µM
  TGI: > 100 µM
[16]
  GI50: 5.32 µM
  TGI: > 100 µM
[17]
  GI50: > 100 µM
  TGI: > 100 µM
[18]
  GI50: 2.8 µM
  TGI: > 100 µM
[19]
  GI50: 8.01 µM
  TGI: > 100 µM
[20]
  GI50: 2.72 µM
  TGI: > 100 µM
[21]
  GI50: > 100 µM
  TGI: > 100 µM
[22]
  GI50: > 100 µM
  TGI: > 100 µM
[23]
  GI50: 3.8 µM
  TGI: > 100 µM
[24]
  GI50: 6.84 µM
  TGI: > 100 µM
[25]
  GI50: 9.68 µM
  TGI: > 100 µM
[26]
  GI50: 6.55 µM
  TGI: > 100 µM
[27]
  GI50: 6.92 µM
  TGI: > 100 µM
[28]
  GI50: 5.17 µM
  TGI: > 100 µM
[29]
  GI50: 5.15 µM
  TGI: > 100 µM
[30]
  GI50: 2.92 µM
  TGI: > 100 µM
[31]
  GI50: 6.06 µM
  TGI: > 100 µM
[32]
  GI50: 7.95 µM
  TGI: > 100 µM
[33]
  GI50: > 100 µM
  TGI: > 100 µM
[34]
  GI50: 6.73 µM
  TGI: > 100 µM
[35]
  GI50: 3.77 µM
  TGI: > 100 µM
[36]
  GI50: 2.9 µM
  TGI: > 100 µM
[37]
  GI50: > 100 µM
  TGI: > 100 µM
[38]
  GI50: > 100 µM
  TGI: > 100 µM
[39]
  GI50: 3.59 µM
  TGI: > 100 µM
[40]
  GI50: 48.5 µM
  TGI: > 100 µM
[41]
  GI50: > 100 µM
  TGI: > 100 µM
[42]
  GI50: > 100 µM
  TGI: > 100 µM
[43]
  GI50: 3.39 µM
  TGI: > 100 µM
[44]
  GI50: > 100 µM
  TGI: > 100 µM
[45]
  GI50: > 100 µM
  TGI: > 100 µM
[46]
  GI50: > 100 µM
  TGI: > 100 µM
[47]
  GI50: 6.46 µM
  TGI: > 100 µM
[48]
  GI50: 4.11 µM
  TGI: > 100 µM
[49]
  GI50: 80.3 µM
  TGI: > 100 µM
[50]
  GI50: 1.83 µM
  TGI: > 100 µM
[51]
  GI50: > 100 µM
  TGI: > 100 µM
[52]
  GI50: 7.08 µM
  TGI: > 100 µM
[53]
  GI50: 3.43 µM
  TGI: > 100 µM
[54]
  GI50: 6.35 µM
  TGI: > 100 µM

## COc1ccc2c(c1)OCC1Cc3cccc(OC)c3OC21 (stereo unspecified)
[1]
  TGI: > 100 µM
[2]
  TGI: > 100 µM
[3]
  TGI: > 100 µM
[5]
  TGI: 80 µM
[6]
  TGI: > 100 µM
[7]
  TGI: > 100 µM
[55]
  TGI: > 100 µM
[8]
  TGI: > 100 µM
[9]
  TGI: > 100 µM
[56]
  TGI: > 100 µM
[10]
  TGI: > 100 µM
[11]
  TGI: > 100 µM
[13]
  TGI: > 100 µM
[14]
  TGI: > 100 µM
[16]
  TGI: > 100 µM
[17]
  TGI: > 100 µM
[19]
  TGI: > 100 µM
[20]
  TGI: > 100 µM
[21]
  TGI: > 100 µM
[22]
  TGI: > 100 µM
[24]
  TGI: > 100 µM
[25]
  TGI: > 100 µM
[57]
  TGI: > 100 µM
[26]
  TGI: 80.7 µM
[27]
  TGI: > 100 µM
[28]
  TGI: > 100 µM
[30]
  TGI: > 100 µM
[31]
  TGI: > 100 µM
[32]
  TGI: > 100 µM
[33]
  TGI: > 100 µM
[34]
  TGI: > 100 µM
[35]
  TGI: > 100 µM
[36]
  TGI: > 100 µM
[38]
  TGI: > 100 µM
[39]
  TGI: > 100 µM
[40]
  TGI: > 100 µM
[41]
  TGI: > 100 µM
[43]
  TGI: 35.7 µM
[44]
  TGI: > 100 µM
[45]
  TGI: > 100 µM
[48]
  TGI: > 100 µM
[49]
  TGI: > 100 µM
[50]
  TGI: > 100 µM
[51]
  TGI: > 100 µM
[52]
  TGI: > 100 µM
[53]
  TGI: > 100 µM
[54]
  TGI: > 100 µM
[58]
  TGI: > 100 µM
